By IC50 is commonly meant the point on the concentration scale where inhibition reaches its midpoint.

Assay [1] has as its target T1, P2X purinoceptor 7 (Homo sapiens, UniProt Q99572).
T1 sequence (Q99572 whole entry): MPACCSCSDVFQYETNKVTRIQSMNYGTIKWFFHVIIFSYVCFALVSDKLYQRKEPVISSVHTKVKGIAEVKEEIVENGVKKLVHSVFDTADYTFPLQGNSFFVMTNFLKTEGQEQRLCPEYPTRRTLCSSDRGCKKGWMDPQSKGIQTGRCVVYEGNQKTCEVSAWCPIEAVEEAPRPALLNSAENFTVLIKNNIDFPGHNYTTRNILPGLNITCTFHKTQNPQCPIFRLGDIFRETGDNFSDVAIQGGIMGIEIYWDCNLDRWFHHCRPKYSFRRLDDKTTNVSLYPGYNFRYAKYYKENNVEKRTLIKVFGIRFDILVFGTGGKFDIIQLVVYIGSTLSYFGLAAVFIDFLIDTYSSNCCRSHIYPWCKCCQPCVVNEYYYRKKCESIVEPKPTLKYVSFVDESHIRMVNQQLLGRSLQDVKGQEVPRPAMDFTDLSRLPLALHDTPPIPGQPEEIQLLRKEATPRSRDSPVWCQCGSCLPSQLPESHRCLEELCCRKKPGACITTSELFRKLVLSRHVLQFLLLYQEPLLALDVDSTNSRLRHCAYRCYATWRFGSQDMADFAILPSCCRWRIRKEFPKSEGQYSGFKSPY
The experiment in a line: Antagonist activity at P2X7 receptor in human THP1 cells assessed as inhibition of BzATP-induced YO-PRO-1 Iodide uptake measured every 30 secs for 1 hr by fluorescence assay. In kind it is cell-based.

The target in assay [2] is T1, P2X purinoceptor 7. The experiment in a line: Antagonist activity at P2X7 receptor in LPS-stimulated human THP1 cells assessed as inhibition of LPS/BzATP-induced IL-1beta release preincubated for 30 mins followed by BzATP addition measured after 30 mins by ELISA. In general terms: In an ELISA, binding on a coated surface is turned into a signal by an enzyme label.
In assay [3] the target is T2, P2X purinoceptor 7 (Homo sapiens) (UniProt Q99572).
T2 sequence (whole entry): T1 sequence (Q99572 whole entry)
As to the kind of experiment: Ratio of IC50 for P2X7 receptor in human THP1 cells assessed as inhibition of BzATP-induced YO-PRO-1 Iodide uptake to IC50 for P2X7 receptor in LPS-stimulated human THP1 cells assessed as inhibition of LPS/BzATP-induced IL-1beta release. In kind it is cell-based.

The target of assay [4] is T3, P2X purinoceptor 7 (Rattus norvegicus, UniProt Q64663).
T3 sequence (Q64663 whole entry): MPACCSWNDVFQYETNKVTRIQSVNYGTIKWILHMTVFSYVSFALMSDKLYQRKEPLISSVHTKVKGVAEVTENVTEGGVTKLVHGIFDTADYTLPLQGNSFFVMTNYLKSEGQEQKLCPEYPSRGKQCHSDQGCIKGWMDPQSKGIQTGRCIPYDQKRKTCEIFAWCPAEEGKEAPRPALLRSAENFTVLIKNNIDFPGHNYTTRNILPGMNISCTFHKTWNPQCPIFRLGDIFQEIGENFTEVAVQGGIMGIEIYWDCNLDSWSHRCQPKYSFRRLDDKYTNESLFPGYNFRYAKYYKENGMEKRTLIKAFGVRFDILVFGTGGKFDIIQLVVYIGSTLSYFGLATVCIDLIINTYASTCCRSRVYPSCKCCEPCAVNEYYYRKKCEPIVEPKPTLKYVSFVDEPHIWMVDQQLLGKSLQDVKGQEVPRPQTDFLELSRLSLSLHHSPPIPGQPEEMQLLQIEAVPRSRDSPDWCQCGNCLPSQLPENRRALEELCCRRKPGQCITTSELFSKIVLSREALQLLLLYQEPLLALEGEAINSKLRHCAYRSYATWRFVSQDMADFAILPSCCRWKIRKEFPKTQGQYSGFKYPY
The experiment in a line: Antagonist activity at rat P2X7 receptor expressed in 1321N1 cells assessed as inhibition of agonist-induced calcium flux pretreated for 3 mins followed by BzATP addition after 3 mins measured every 1 sec for 60 secs and at 5 secs interval throughout testing by Flou-4-AM dye based FLIPR assay. In kind it is cell-based.

Take `N#C/N=C(\NCC12CC3CC(CC(C3)C1)C2)Nc1cccc2ncccc12`: the IC50 in assay [1] was found to be 18 nM; in assay [2], 2 nM. The Ratio IC50 in assay [3] turned out to be 9. For `N#C/N=C(/NCCc1ccccc1)NC12CC3CC(CC(C3)C1)C2`, the IC50 in assay [1] is more than 10000 nM. On the same count and under the same terms, the value for `N#C/N=C(\NCC12CC3CC(CC(C3)C1)C2)Nc1cccc(F)c1` was 186 nM.

For the compound `N#C/N=C(\NCC12CC3CC(CC(C3)C1)C2)Nc1ccc(F)cc1`, in assay [1], the IC50 was found to be 174 nM.

As for `N#C/N=C(/Nc1ccccc1)NC12CC3CC(CC(C3)C1)C2`, the IC50 in assay [1] is 2460 nM. Consider `N#C/N=C(/NCCc1ccccc1)NCC12CC3CC(CC(C3)C1)C2`, for which, in assay [1], the IC50 turned out to be 4070 nM. On to `N#C/N=C(/NCc1ccccc1)NC12CC3CC(CC(C3)C1)C2`, for which the IC50 in assay [1] was more than 10000 nM. Take `N#C/N=C(/NCc1ccccn1)NCC12CC3CC(CC(C3)C1)C2`: the IC50 in assay [1] came out at 234 nM; in assay [2], 138 nM. In assay [3], the Ratio IC50 amounted to 1.7. For `N#C/N=C(/NCc1ccccc1)NCC12CC3CC(CC(C3)C1)C2`, the figures for the IC50 in assay [1] and in assay [2] were 407 nM and 79 nM, respectively. In addition, in assay [3], the Ratio IC50 was found to be 5.2. As for `N#C/N=C(/NCc1ccccc1F)NCC12CC3CC(CC(C3)C1)C2`, in assay [1], the IC50 was 501 nM.

For the compound `N#C/N=C(\NCC12CC3CC(CC(C3)C1)C2)Nc1ccccc1F`, in assay [1], the IC50 was 58 nM.

With `N#C/N=C(/NCc1cccc(F)c1)NCC12CC3CC(CC(C3)C1)C2`, the IC50 in assay [1] was determined as 708 nM; in assay [2] it was 132 nM. Further, in assay [3], the Ratio IC50 amounted to 5.4. On to `N#C/N=C(\NCC12CC3CC(CC(C3)C1)C2)Nc1ccccc1`, for which the IC50 in assay [1] worked out at 100 nM. The same measure, in the same setting: to `N#C/N=C(\NCC12CC3CC(CC(C3)C1)C2)Nc1ccncc1` belongs 417 nM. As for `C[C@H](N/C(=N/C#N)Nc1cccc2ncccc12)c1ccccc1`, the IC50 in assay [4] is 9 to 11 nM.

The values are drawn from ChEMBL document CHEMBL4011591, “Discovery and pharmacological evaluation of a novel series of adamantyl cyanoguanidines as P2X7 receptor antagonists” (Eur J Med Chem, 2017).
